The structures appear in SMILES notation. Structures can show the parent of a compound that is named as a salt.

The assay has as its system guinea-pig teania coli. The assay is described as follows: Pharmacological test I: calcium-antagonistic activity, inhibition of Ca++-induced contraction of isolated guinea-pig teania coli. The settings on record: Cavia porcellus, 5 min, Ca++-free-high-K Krebs, 5 min exposure before CaCl2 (3×10^-4 M), 32° C., read-out: Calcium-antagonistic activity IC50 (concentration eliciting 50% inhibition of Ca++-induced contraction). The protocol:
The action potentials on the smooth muscles of uterus, teania coli and portal vein are dependent on calcium ion, and therefore these smooth muscle preparations are useful for screening of calcium antagonists. We measured the calcium-antagonistic activity of the compounds by the method using guinea-pig teania coli preparation.
Isolated guinea-pig teania coli was suspended in a organ bath filled with Krebs solution at 32° C. and bubbled with 5% carbon dioxide in oxygen. After equilibration, the muscle was washed with Ca^++ -free Krebs solution, and when the muscle had relaxed to the basal level, it was suspended in Ca^++ -free-high-K Krebs solution.
The muscle was exposed to test compounds for 5 minutes before addition of CaCl2, and the contraction induced by CaCl2 (3×10^-4 M) was recorded isotonically. The calcium-antagonistic activity was represented by the concentration of test compound which elicited 50% inhibition of Ca^++ -induced contraction (IC50).
As to `COc1ccc(OC)c(C2(CCCN(C)C3CCCCC3)Sc3ccccc3N(C)C2=O)c1` (centres unmarked) [compound 80, 3,4-Dihydro-2-(2,5-dimethoxyphenyl)-4-methyl-2-[3-(N-methylcyclohexylamino)propyl]-3-oxo-2H-1,4-benzothiazine oxalate], the IC50 is 710 nM. Under `COc1ccc(OC)c(C2(CCCN(C)CCc3cc(OC)c(OC)c(OC)c3)Sc3ccccc3N(C)C2=O)c1` (centres unmarked) [compound 83, 3,4-Dihydro-2-(2,5-dimethoxyphenyl)-4-methyl-2-[3-(N-methyl-3,4,5-trimethoxyphenethylamino)propyl[-3-oxo-2H-1,4-benzothiazine oxalate] stands 860 nM. Under `COc1ccc(CCN(C)CCCCOc2ccc(C3(SC)Sc4ccccc4N(C)C3=O)cc2)cc1OC` (centres unmarked) [compound 103, 3,4-Dihydro-4-methyl-2-[4-[4-(N-methyl-3,4-dimethoxyphenethylamino)butoxy]phenyl]-2-methylthiol-3-oxo-2H-1,4l-benzothiazine hydrochloride] stands 530 nM; under `COc1ccc(OCCCN(C)CCc2ccc(OC)c(OC)c2)c(C2(SC)Sc3ccccc3N(C)C2=O)c1` (centres unmarked) [compound 131, 3,4-Dihydro-2-[5-methoxy-2-[3-(N-methyl-3,4-dimethoxyphenethylamino)propoxy]phenyl]-4-methyl-2-methylthio-3-oxo-2H-1,4-benzothiazine hydrochloride], 630 nM.

In the case of `COc1ccc(OCCCCN(C)CCc2cc(OC)c(OC)c(OC)c2)c(C2(SC)Sc3ccccc3N(C)C2=O)c1` (centres unmarked) [compound 142, 3,4-Dihydro-2-[5-methoxy-2-[4-(N-methyl-3,4,5-trimethoxyphenethylamino)butoxy]phenyl]-4-methyl-2-methylthio-3-oxo-2H-1,4-benzothiazine hydrochloride], the IC50 turned out to be 630 nM. Under `COc1ccc(OCCCN(C)CCOc2ccc3c(c2)OCO3)c(C2(OC)Sc3ccccc3N(C)C2=O)c1` (centres unmarked) [compound 147, 3,4-Dihydro-2-methoxy-2-[5-methoxy-2-[3-[N-methyl-2-(3,4-methylenedioxyphenoxy)ethylamino]propoxy]phenyl]-4-methyl-3-oxo-2H-1,4-benzothiazine hydrochloride] stands 420 nM; under `COc1ccc(OCCCCN(C)CCOc2ccc3c(c2)OCO3)c(C2(OC)Sc3ccccc3N(C)C2=O)c1` (centres unmarked) [compound 148, 3,4-Dihydro-2-methoxy-2-[5-methoxy-2-[4-[N-methyl-2-(3,4-methylenedioxyphenoxy)ethylamino]butoxy]phenyl]-4-methyl-3-oxo-2H-1,4-benzothiazine hydrochloride], 380 nM; under `COc1ccc(OCCCCN(C)CCOc2ccc3c(c2)OCO3)c(C2(SC)Sc3ccccc3N(C)C2=O)c1` (centres unmarked) [compound 150, 3,4-Dihydro-2-[5-methoxy-2-[4-[N-methyl-2-(3,4-methylenedioxyphenoxy)ethylamino]butoxy]phenyl]-4-methyl-2-methylthio-3-oxo-2H-1,4-benzothiazine hydrochloride hemihydrate], 890 nM.
